Measurements published in paper PMC10845951, “Characterization of a selective, iron-chelating antifungal compound that disrupts fungal metabolism and synergizes with fluconazole” (Microbiology Spectrum, 2024).

System: C. glabrata gene expression
Assay: RNA sequencing (gene regulation)
Format: cell-based, Candida glabrata
Details: for Log2 Fold-Change: vs DMSO
Experimental: Cells from overnight precultures in YPD medium were reinoculated in fresh YNB −iron medium (see “Culture maintenance” for contents) without iron and grown until OD600 of 0.4. […] Cells were collected from three independent experiments, snap frozen, and stored at −80°C. Total RNA purification was performed as previously described using the RNeasy Mini Kit (74104, Qiagen), and gDNA removal was made using the RNase-Free DNase Set kit (79254, Qiagen). RNA quantification and quality control were done with a Tape Station 4150 (Agilent) ([59]).
Library preparation and sequencing were performed at GenomEast (IGBMC, Illkirch, France). One DMSO 0.05% sample was excluded from the analysis due to insufficient quality. The library was sequenced on Illumina Hiseq 4000 sequencer as single-read 50-base reads following Illumina’s instructions. Reads were pre-processed in order to remove adapter, polyA, and low-quality sequences (Phred quality score below 20). Reads shorter than 40 bases were discarded from further analysis. These pre-processing steps were performed using cutadapt version 1.10 ([60]). Image analysis and base calling were performed using RTA 2.7.7 and bcl2fastq2.17.1.14. Adapter dimer reads were removed using DimerRemover (https://sourceforge.net/projects/dimerremover/). The quality of the RNAseq reads was examined using FastQC 0.11.2 (http://www.bioinformatics.babraham.ac.uk/projects/fastqc/) and FastQScreen 0.5.1 (https://www.bioinformatics.babraham.ac.uk/projects/fastq_screen/). Reads were mapped onto the ASM254v2 assembly of Candida glabrata genome using STAR version 2.5.3a ([61]). Gene expression quantification was performed from uniquely aligned reads using htseq-count version 0.6.1p1 ([62]), with annotations from Ensembl fungi version 50 and union mode. Only non-ambiguously assigned reads have been retained for further analyses. Read counts were normalized across samples with the median-of-ratios method ([63]). Comparisons were implemented in the Bioconductor package DESeq2 version 1.16.1 using the test for differential expression ([64]). Genes with no P-value corresponded to genes with high Cook’s distance that were filtered out. P-values were adjusted for multiple testing using the Benjamini and Hochberg method ([65]). Genes with no adjusted P-value correspond to genes filtered out in the independent filtering step in order to remove reads from genes that have no or little chance of showing evidence of significant differential expression.

In the case of `c1ccc(-c2cccc(-c3ccccn3)n2)nc1` [2,2′:6′,2′′-terpyridine], the genes significantly downregulated (10 µM, 1 h) is reported as 220 genes, the genes significantly upregulated (10 µM, 1 h) is reported as 224 genes and the “Log2 Fold-Change” value (ALD5 CAGL0J03212g) is reported as 0.7544. The “Log2 Fold-Change” value (AP5 CAGL0K08756g) was 0.9964, the “Log2 Fold-Change” value (APE1 CAGL0K08536g) was 0.6939 and the transcriptional response (C. glabrata and S. cerevisiae) was “strong iron starvation response”. The “Log2 Fold-Change” value (CAGL0A03674g) was 0.5588, the “Log2 Fold-Change” value (CAGL0B00484g) was 0.7628 and the “Log2 Fold-Change” value (CAGL0B00792g) was 1.214. The “Log2 Fold-Change” value (CAGL0B00880g) was 0.7009, the “Log2 Fold-Change” value (CAGL0B01485g) was 0.6219 and the “Log2 Fold-Change” value (CAGL0B02343g) was 1.023. The “Log2 Fold-Change” value (CAGL0H06963g) was 0.7275, the “Log2 Fold-Change” value (CAGL0H06985g) was 0.7901 and the “Log2 Fold-Change” value (CAGL0H07205g) was 0.5522. For the same compound, the “Log2 Fold-Change” value (CAGL0H08393g) was 1.535, the “Log2 Fold-Change” value (CAGL0H09966g) was 1.521 and the “Log2 Fold-Change” value (CAGL0I00264g) was 0.9978. The “Log2 Fold-Change” value (CAGL0I02354g) was 0.6425, the “Log2 Fold-Change” value (CAGL0I02376g) was 0.6418 and the “Log2 Fold-Change” value (CAGL0I02398g) was 0.5822. For the same compound, the “Log2 Fold-Change” value (CAGL0I02508g) was 0.5529, the “Log2 Fold-Change” value (CAGL0I02684g) was 0.5135 and the “Log2 Fold-Change” value (CAGL0I03344g) was 0.7316. For the same compound, the “Log2 Fold-Change” value (CAGL0I03608g) was 0.7862, the “Log2 Fold-Change” value (CAGL0I03630g) was 0.6284 and the “Log2 Fold-Change” value (CAGL0I04290g) was 0.6237. The “Log2 Fold-Change” value (CAGL0I05060g) was 0.5728, the “Log2 Fold-Change” value (CAGL0I05654g) was 0.7141 and the “Log2 Fold-Change” value (CAGL0I09350g) was 0.5587. The “Log2 Fold-Change” value (CAGL0I09702g) was 0.5611, the “Log2 Fold-Change” value (CAGL0I10670g) was 0.9553 and the “Log2 Fold-Change” value (CAGL0J00451g) was 2.136. For the same compound, the “Log2 Fold-Change” value (CAGL0J00473g) was 0.7426, the “Log2 Fold-Change” value (CAGL0J01023g) was 1.022 and the “Log2 Fold-Change” value (CAGL0J01045g) was 0.9433. For the same compound, the “Log2 Fold-Change” value (CAGL0J02376g) was 0.7958, the “Log2 Fold-Change” value (CAGL0J03718g) was 0.5395 and the “Log2 Fold-Change” value (CAGL0J05412g) was 0.5243. For the same compound, the “Log2 Fold-Change” value (CAGL0J07568g) was 0.7185, the “Log2 Fold-Change” value (CAGL0J07980g) was 0.7919 and the “Log2 Fold-Change” value (CAGL0J08250g) was 0.5358. The “Log2 Fold-Change” value (CAGL0J08910g) was 0.5502, the “Log2 Fold-Change” value (CAGL0J09196g) was 0.506 and the “Log2 Fold-Change” value (CAGL0J09460g) was 0.6815. For the same compound, the “Log2 Fold-Change” value (CAGL0J10032g) was 0.7428, the “Log2 Fold-Change” value (CAGL0J10252g) was 0.8692 and the “Log2 Fold-Change” value (CAGL0J10912g) was 0.7791. For the same compound, the “Log2 Fold-Change” value (CAGL0J11066g) was 0.8417, the “Log2 Fold-Change” value (CAGL0J11088g) was 0.5227 and the “Log2 Fold-Change” value (CAGL0J11242g) was 0.9997. For the same compound, the “Log2 Fold-Change” value (CAGL0J11286g) was 0.9034, the “Log2 Fold-Change” value (CAGL0K02211g) was 0.9809 and the “Log2 Fold-Change” value (CAGL0K02387g) was 0.933. The “Log2 Fold-Change” value (CAGL0K02431g) was 0.8737, the “Log2 Fold-Change” value (CAGL0K03861g) was 0.5943 and the “Log2 Fold-Change” value (CAGL0K05049g) was 0.5707. The “Log2 Fold-Change” value (CAGL0K05555g) was 0.5483, the “Log2 Fold-Change” value (CAGL0K06215g) was 1.181 and the “Log2 Fold-Change” value (CAGL0K07007g) was 1.24. The “Log2 Fold-Change” value (CAGL0K07898g) was 0.62, the “Log2 Fold-Change” value (CAGL0K08272g) was 0.5171 and the “Log2 Fold-Change” value (CAGL0K08360g) was 0.5636. For the same compound, the “Log2 Fold-Change” value (CAGL0K09284g) was 1.197, the “Log2 Fold-Change” value (CAGL0K09372g) was 0.5402 and the “Log2 Fold-Change” value (CAGL0K09614g) was 0.8683. The “Log2 Fold-Change” value (CAGL0K09922g) was 0.6435, the “Log2 Fold-Change” value (CAGL0L00583g) was 0.7346 and the “Log2 Fold-Change” value (CAGL0L02739g) was 0.6875. For the same compound, the “Log2 Fold-Change” value (CAGL0L02871g) was 0.8194, the “Log2 Fold-Change” value (CAGL0L03047g) was 0.9793 and the “Log2 Fold-Change” value (CAGL0L03696g) was 0.5808. The “Log2 Fold-Change” value (CAGL0L04092g) was 0.5318, the “Log2 Fold-Change” value (CAGL0L04114g) was 0.5841 and the “Log2 Fold-Change” value (CAGL0L04950g) was 0.896. The “Log2 Fold-Change” value (CAGL0L05170g) was 0.8533, the “Log2 Fold-Change” value (CAGL0L05258g) was 1.271 and the “Log2 Fold-Change” value (CAGL0L05500g) was 0.7913. The “Log2 Fold-Change” value (CAGL0L05566g) was 0.7478, the “Log2 Fold-Change” value (CAGL0L05786g) was 1.136 and the “Log2 Fold-Change” value (CAGL0L06468g) was 0.5199. For the same compound, the “Log2 Fold-Change” value (CAGL0L06754g) was 0.7195, the “Log2 Fold-Change” value (CAGL0L07678g) was 0.9514 and the “Log2 Fold-Change” value (CAGL0L07832g) was 0.9435. The “Log2 Fold-Change” value (CAGL0L08096g) was 0.673, the “Log2 Fold-Change” value (CAGL0L08206g) was 0.6805 and the “Log2 Fold-Change” value (CAGL0L08756g) was 0.7529. For the same compound, the “Log2 Fold-Change” value (CAGL0L08976g) was 0.7934, the “Log2 Fold-Change” value (CAGL0L10846g) was 0.7927 and the “Log2 Fold-Change” value (CDC21 CAGL0K05467g) was 0.5322. The “Log2 Fold-Change” value (FTR1 CAGL0I06743g) was 1.014, the “Log2 Fold-Change” value (GAT1 CAGL0K07634g) was 0.7416 and the “Log2 Fold-Change” value (HBN1 CAGL0B00990g) was 1.565. For the same compound, the “Log2 Fold-Change” value (HMX1 CAGL0A03905g) was 1.923, the “Log2 Fold-Change” value (KNH1 CAGL0H07997g) was 0.5109 and the “Log2 Fold-Change” value (NOP8 CAGL0B01397g) was 0.7894. For the same compound, the “Log2 Fold-Change” value (PDR16 CAGL0J07436g) was 0.9143, the “Log2 Fold-Change” value (SNQ2 CAGL0I04862g) was 0.5824 and the “Log2 Fold-Change” value (SUT1 CAGL0I04246g) was 0.7641. For the same compound, the “Log2 Fold-Change” value (SUT2 CAGL0L09383g) was 0.6785 and the “Log2 Fold-Change” value (TRR1 CAGL0I01166g) was 1.667.
